# From US20160175401A1, “COMPOITIONS AND METHODS FOR MODULATING THERMOGENESIS USING PTH-RELATED AND EGF-RELATED COMPOUNDS” (DANA-FARBER CANCER INSTITUTE INC., priority 2013, published 2016)
# Key:
# [1] = system: PKA substrates CREB and HSL; test: PKA signalling: protein phosphorylation by western blotting in primary adipocytes; type: cell-based, mouse; settings: 100 nM NE, 100 ng ml^−1 PTHrP or PTH, 30 min, primary white and brown adipocytes (FIG. 23D-23E)
# Description: UCP1 protein levels were measured by western blotting in white (FIG. 23A) and brown (FIG. 23B) adipocytes. […] Real-time triplicate readings (upper panel) and their averages (lower panel) are shown (n=4). […] The values are mean±s.e.m. Statistical analysis was conducted using the two-tailed t-test. *, P<0.05; **, P<0.005; ***, P<0.0005, compared with the control group.
# (§1) Cells were homogenized in a lysis buffer containing 50 mMTris (pH 7.4), 500 mM NaCl, 1% NP40, 20% glycerol, 5 mM EDTA and 1 mM phenylmethylsulphonyl fluoride (PMSF) supplemented with protease and phosphatase inhibitor cocktails (Roche). The homogenates were centrifuged at 13,000 r.p.m. for 10 min, and the supernatants were used as whole-cell lysates. Protein concentration was determined by Bio-Rad protein assay, and […] protein lysate was separated in each SDS-PAGE lane. The separated proteins were transferred to a polyvinylidene difluoride (PVDF)membrane, which was blotted with antibodies in TBS containing 0.05% Tween (TBS-T) and 5% BSA. For secondary antibody incubation. TBS-T containing 5% milk was used. Enhanced chemiluminescence (ECL) western blotting substrates (Pierce) were used for visualization of the results.
# UCP1 = UCP1 protein levels by western blotting in primary adipocytes; type: cell-based, mouse
# Description: Cells were homogenized in a lysis buffer containing 50 mM Tris (pH 7.4), 500 mM NaCl, 1% NP40, 20% glycerol, 5 mM EDTA and 1 mM PMSF, supplemented with protease and phosphatase inhibitor cocktails (Roche). The homogenates were centrifuges at 13,000 rpm for 10 min and the supernatants were used as whole cell lysates. Protein concentration was determined by Bio-Rad Bradford assay and 50 μg of proteins were used in each SDS-PAGE run. PVDF membrane was blotted with UCP1 antibody (Abeam) in TBS containing 0.05% Tween and 5% BSA. For secondary antibody incubation, TBS-T containing 5% milk was used. ECL western blotting substrates from Pierce were used for visualization of the results.
# as §1
substance,measurement,setting,value
"PTH (1-34): Synthetic peptide rat PTH(1-34) (Ala32-Phe65; Catalog No. H-5460), purchased from Bachem",phosphorylation of the PKA substrates CREB and HSL,[1],stimulated the phosphorylation
same,UCP1 protein levels,"UCP1; 100 nM NE, 100 ng ml^−1 PTHrP or PTH, 24 h, primary white and brown adipocytes (FIG. 23A-23B)",comparably increased UCP1 protein levels
same,UCP1 protein levels,"UCP1; 24 hour treatment, norepinephrine 100 nM, peptides 100 ng/mL, western blotting (FIG. 8D)",significantly increased
